Experiments:
human cathepsin G (HCG) = biological target: T1, human cathepsin G (HCG) (Homo sapiens, UniProt P08311); assay: HCG inhibitory activity (synthetic substrate, pNA release); assay type: biochemical; conditions: pH 7.5; HCG 50 nM, substrate 0.5 mM; read-out: IC₅₀ value HCG
T1 construct: purchased Cosmo Bio Inc
T1 sequence (P08311 21-244): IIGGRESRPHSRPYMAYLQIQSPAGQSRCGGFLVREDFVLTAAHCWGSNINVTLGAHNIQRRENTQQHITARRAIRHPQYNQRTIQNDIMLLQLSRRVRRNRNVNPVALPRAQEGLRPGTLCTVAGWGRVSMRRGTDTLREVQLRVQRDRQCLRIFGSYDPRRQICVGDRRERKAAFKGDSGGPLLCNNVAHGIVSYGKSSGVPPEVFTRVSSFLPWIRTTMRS
Experimental: (§1) Activities of the Benzoxazine derivatives of the present invention against human leukocyte elastase (HLE), human sputum elastase (HSE), human cathepsin G (HCG), bovine pancreatic α-chmotrypsin (CYT) and bovine pancreatic trypsin (TRY) were measured by the following method.
(§2) A test compound was dissolved in DMSO (for fluorometry) and prepared various concentration of the solution. To each concentration was added 2-fold volume of 0.2M Tris-HCl (pH8.6), thereby obtaining a test solution. Synthetic substrate (Funakoshi, L-1335) was dissolved in DMSO and 2-volume of 0.2M Tris-HCl (pH8.6) was added thereto, thereby obtaining a substrate solution. The reaction was performed using a microplate having 96 wells (Nunk). Six-time reactions were repeated for each concentration. One handred and forty µl of an enzyme solution containing 0.2M Tris-HCl (pH8.6), 30 µl of a test solution and 30 µl of a substrate solution per well of the microplate were respectively pre-incubated at 37°C for 10 minutes. After completion of the incubation, the enzyme solution was mixed with the test sample and incubated for 10 minutes and then the substrate solution was added to perform an enzyme reaction. The absorbance of released P-nitroanilide (PNA) was measured at the wave length of 405 nm by means of a microplate reader (MTP-100; CORONA), thereby determining the substrate decomposition. The rate of the substrate decomposition was shown as an average value of 6 repeated reactions. The inhibitory concentration of a test compound relative to the amount of the substrate decomposition in the reaction mixture without a test compound was regarded as an IC₅₀ value. The final concentration of HLE and a synthesized substrate in the reaction mixture were 5.63 nM and 0.2625 mM, respectively.
a) Enzyme obtaining route HCG was obtained from Cosmo Bio Inc.
The same method as in the measurement of HLE inhibitory activity was used except that a buffer solution (pH 7.5) was used. The final concentration of HCG and synthetic substrate (Funakoshi, L-1010) in a reaction mixture were 50 nM and 0.5 mM, respectively.

[1] = system: Neutrophile Infiltration of Carrageenin-induced Air Pouch inflammation; assay: Suppression of neutrophile infiltration in carrageenin-induced air pouch inflammation; assay type: in vivo, rat; conditions: Dose 10.9 µmol into the air pouch immediately after carrageenin, exudate cells five hours later, SD female rats
Experimental: SD female rats in 5 weeks old, having the weight in the range of 110 to 130g were used. A group was regarded to have 5 rats. In the first step, an air pouch was formed by a hypodermic injection of 8 ml of air on the back of a rat under ether anesthesia. Twenty four hours later, to the air pouch was added 5 ml of a saline containing 1% carrageenin (Wako Co., Ltd.). A test compound of the present invention, which has been dissolved in 200 µl DMSO (dimethylsulfoxide), was administered in the air pouch immediately after the carrageenin injection.
Five hours later, the rat was killed and the blood was released. Then, 5 ml of PBS containing EDTA (ethylenediamine tetraacetate) was injected in the air pouch. The exudate in the air pouch was washed and collected. An aliquot of the exudate was measured by a colter counter and determined the number of cells in the collected exudate.
The value subtracting migrating cell number in an experiment performed without carrageenin injection from the migrating cell number in a control experiment administering no the compound of the present invention was regarded as 100, the chemotaxis suppressing activity was determined as the following formula: Cell Infiltration Suppressing Activity (%) [formula] = 100 - S/T x 100 [formula] = 100 - (U - V )/(W - V) x 100 [formula] […]

[2] = biological target: T2, human leukocyte elastase (HLE) (Homo sapiens, UniProt P08246); assay: HLE inhibitory activity (synthetic substrate, pNA release, absorbance 405 nm); assay type: biochemical; conditions: pH 8.6; HLE 5.63 nM, substrate 0.2625 mM; 37°C; read-out: IC₅₀ value HLE
T2 construct: the mixed solution was subjected to density gradient centrifugation, thereby obtaining neutrophiles; from tissue; host or cells: neutrophils from human vein blood (buffy coat)
T2 sequence (P08246 30-247 limits assumed): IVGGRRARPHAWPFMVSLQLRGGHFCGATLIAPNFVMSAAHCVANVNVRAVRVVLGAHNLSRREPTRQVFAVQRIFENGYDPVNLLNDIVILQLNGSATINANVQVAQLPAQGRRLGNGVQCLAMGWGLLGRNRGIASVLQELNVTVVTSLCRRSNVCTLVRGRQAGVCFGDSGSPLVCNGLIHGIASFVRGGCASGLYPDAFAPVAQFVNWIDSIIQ
Experimental: as §1
A buffy coat was obtained by subjecting human vein blood to centrifugation. To the buffy coat was added distilled water to make a hypotonic solution, thereby bursting erythrocytes. To the residual blood cell component was added a 33.4% of Conrey 400 solution/9% Ficoll solution (the ratio of the former solution to the latter solution is 10:24), and the mixed solution was subjected to density gradient centrifugation, thereby obtaining neutrophiles. The neutrophile fraction was washed with Hanks' buffer for three times and then cells were recovered and cryopreserved at -80°C until use. The cryopreserved-cells were thawed with warm water at 37°C and suspended in a 9-fold volume of lysis buffer containing 0.1M Tris-HCl (pH7.5), 1M MgCl₂ and 0.1% Brij 35. The suspended cells are destroyed by means of polotoron with ice-cooling. The cell suspension was subjected to centrifugation at 100,000 x g for 1 hour. After removing precipitates, 2-fold volume of a Tris-HCl buffer containing 5 mM Tris-HCl(pH 7.5), 1M NaCl and 1.1% Brij 35 was added to the supernatant, thereby obtaining a crude solution of an enzyme extract. The crude solution was subjected to aprotinine affinity column and extracted with an elution buffer containing […] of glycine-HCl (pH 3.3), 1M NaCl and 0.1% Brij 35, thereby obtaining an active fraction. The obtained active fraction was further subjected to MONO S-ion-exchange chromatography and eluted with 2M NaCl linear gradient. The obtained fraction was dialyzed against 25 mM Tris-HCl (pH8.6) and lyophilized, thereby obtained an enzyme sample.
as §2

[3] = biological target: T3, bovine pancreatic α-chmotrypsin (CYT) (Bos taurus, UniProt P00766); assay: CYT inhibitory activity (synthetic substrate, pNA release); assay type: biochemical; conditions: pH 8.0; CYT 3.4 nM, substrate 0.273 mM; read-out: IC₅₀ value CYT
T3 construct: bovine pancreatic α-chmotrypsin (CYT); purchased Sigma Co., Ltd
Experimental: as §1, §2
a) Enzyme obtaining route CYT was obtained from Sigma Co., Ltd.
Substantially the same method as used in the measurement of the HLE inhibitory activity was used except that a buffer solution (pH 8.0) was used. The final concentration of CYT and synthetic substrate (Funakoshi, L-1010) in a reaction mixture were 3.4 nM and 0.273 mM, respectively.

For `Cc1cccc2nc([C@@H](NC(=O)COC(c3ccccc3)c3ccccn3)C(C)C)oc(=O)c12` (mixture of isomers) [Compound 3, 5-methyl-2-[2-methyl-1(S)-[[[(±)-α-(2-pyridyl)benzyloxy]acetyl]amino]propyl]-4H-3,1-benzoxazin-4-one], the IC50 (human cathepsin G (HCG)) was 58300 nM, the “Rate (%) of Suppressing Cell Infietration” value [1] was 33.9% and the “Cell Infiltration” value ([1]; control regarded as 100) was 66.1. It also gave an IC50 [2] of 340 nM and an IC50 [3] of 2080 nM.

From EP0569598A1, “BENZOXAZINONE DERIVATIVE” (JAPAN TOBACCO INC., priority 1991, dated 1993)
